experiment: Replicon assay (luciferase readout, ET cell line); type: cell-based; settings: Hepatitis C virus; 10 μM compound; ET (Huh-lucubineo-ET) cells; luciferase activity measured 48-72 hours after addition; relative to no compound control; read-out: % Inhib. at 10 μM (percent inhibition of replication)
Method: A cell line, ET (Huh-lucubineo-ET) is used for screening of compounds for inhibiting HCV RNA dependent RNA polymerase. The ET cell line is stably transfected with RNA transcripts harboring a I389luc-ubi-neo/NS3-3′/ET; replicon with firefly luciferase-ubiquitin-neomycin phosphotransferase fusion protein and EMCV-IRES driven NS3-5B polyprotein containing the cell culture adaptive mutations (E1202G; T12801; K1846T) (Krieger at al, 2001 and unpublished). The ET cells are grown in DMEM (Dulbeco's Modified Eagle's Medium), supplemented with 10% fetal calf serum, 2 mM Glutamine, Penicillin (100 IU/mL)/Streptomycin (100 μg/mL), 1× nonessential amino acids, and 250 μg/mL G418 (“Geneticin”). They are all available through Life Technologies (Bethesda, Md.). The cells are plated at 0.5-1.0×10^4 cells/well in the 96 well plates and incubated for 24 hrs before adding test compound. The compounds are added to the cells to achieve a final concentration of 0.1 nM to 50 μm and a final DMSO (dimethylsulfoxide) concentration of 0.5%. Luciferase activity is measured 48-72 hours later by adding a lysis buffer and the substrate (Catalog number Glo-lysis buffer E2661 and Bright-Glo luciferase system E2620 Promega, Madison, Wis.). Cells should not be too confluent during the assay. Percent inhibition of replication data is plotted relative to no compound control. Under the same condition, cytotoxicity of the compounds are determined using cell proliferation reagent, WST-1(Roche, Germany). The compounds showing antiviral activities, but no significant cytotoxicities are chosen to determine IC50 and TC50. For these determinations, a 10 point, 2-fold serial dilution for each compound was used, which spans a concentration range of 1000 fold. IC50 and TC50 values were calculated by fitting % inhibition at each concentration to the following equation:
% inhibition=100%/[(IC50/[I])^b+1]
where b is Hill's coefficient. […]

| SMILES | inhibition at 10 µM [%] |
| --- | --- |
| O=C(Nc1ccc(N2CCOCC2)cc1)c1cccc(-c2csc(NC(=O)c3ccc(CN4CCS(=O)(=O)CC4)cc3)n2)c1 [Compound 104, 3-{2-[4-(1,1-Dioxo-thiomorpholin-4-ylmethyl)-benzoylamino]-thiazol-4-yl}-N-(4-morpholin-4-yl-phenyl)-benzamide] | 95.8 |
| CCCS(=O)(=O)N1CCN(Cc2ccc(NC(=O)c3ccc(-c4csc(C(=O)Nc5ccc(CN6CCN(S(=O)(=O)CCC)CC6)cc5)n4)cc3)cc2)CC1 [Compound 114, 4-(4-{4-[4-(Propane-1-sulfonyl)-piperazin-1-ylmethyl]-phenylcarbamoyl}-phenyl)-thiazole-2-carboxylic acid {4-[4-(propane-1-sulfonyl)-piperazin-1-ylmethyl]-phenyl}-amide] | 98 |
| CCCS(=O)(=O)N1CCN(Cc2ccc(NC(=O)c3cccc(-c4csc(C(=O)Nc5ccc(CN6CCN(S(=O)(=O)CCC)CC6)cc5)n4)c3)cc2)CC1 [Compound 115, 4-(3-{4-[4-(Propane-1-sulfonyl)-piperazin-1-ylmethyl]-phenylcarbamoyl}-phenyl)-thiazole-2-carboxylic acid {4-[4-(propane-1-sulfonyl)-piperazin-1-ylmethyl]-phenyl}-amide] | 100 |
| O=C(Nc1ccc(CN2CCS(=O)(=O)CC2)cc1)c1ccc(-c2csc(C(=O)Nc3ccc(CN4CCS(=O)(=O)CC4)cc3)n2)cc1 [Compound 110, 4-{4-[4-(1,1-Dioxo-thiomorpholin-4-ylmethyl)-phenylcarbamoyl]-phenyl}-thiazole-2-carboxylic acid [4-(1,1-dioxo-thiomorpholin-4-ylmethyl)-phenyl]-amide] | 99.9 |
| O=C(Nc1nc(-c2ccc(C(=O)NC3CC3)cc2)cs1)c1ccc(CN2CCS(=O)(=O)CC2)cc1 [Compound 102, 4-{2-[4-(1,1-Dioxo-thiomorpholin-4-ylmethyl)-benzoylamino]-thiazol-4-yl}-N-cyclopropyl-benzamide] | 47.4 |
| O=C(Nc1ccc(CN2CCS(=O)(=O)CC2)cc1)c1cccc(-c2csc(C(=O)Nc3ccc(CN4CCS(=O)(=O)CC4)cc3)n2)c1 [Compound 113, 4-{3-[4-(1,1-Dioxo-thiomorpholin-4-ylmethyl)-phenylcarbamoyl]-phenyl}-thiazole-2-carboxylic acid [4-(1,1-dioxo-thiomorpholin-4-ylmethyl)-phenyl]-amide] | 89.5 |
| O=C(Nc1ccc(N2CCOCC2)cc1)c1ccc(-c2csc(C(=O)Nc3ccc(N4CCOCC4)cc3)n2)cc1 [Compound 111, 4-[4-(4-Morpholin-4-yl-phenylcarbamoyl)-phenyl]-thiazole-2-carboxylic acid (4-morpholin-4-yl-phenyl)-amide] | 34.2 |
| O=C(Nc1ccc(N2CCOCC2)cc1)c1cccc(-c2csc(C(=O)Nc3ccc(N4CCOCC4)cc3)n2)c1 [Compound 112, 4-[3-(4-Morpholin-4-yl-phenylcarbamoyl)-phenyl]-thiazole-2-carboxylic acid (4-morpholin-4-yl-phenyl)-amide] | 98.5 |
| O=C(Nc1ccc(N2CCOCC2)cc1)c1cccc(-c2csc(C(=O)Nc3ccc(CN4CCS(=O)(=O)CC4)cc3)n2)c1 [Compound 107, 4-[3-(4-Morpholin-4-yl-phenylcarbamoyl)-phenyl]-thiazole-2-carboxylic acid [4-(1,1-dioxo-thiomorpholin-4-ylmethyl)-phenyl]-amide] | 36.5 |
| CCCS(=O)(=O)N1CCN(Cc2ccc(NC(=O)c3cccc(-c4csc(C(=O)Nc5ccc(N6CCOCC6)cc5)n4)c3)cc2)CC1 [Compound 116, 4-(3-{4-[4-(Propane-1-sulfonyl)-piperazin-1-ylmethyl]-phenylcarbamoyl}-phenyl)-thiazole-2-carboxylic acid (4-morpholin-4-yl-phenyl)-amide] | 99.5 |
| O=C(Nc1ccc(CN2CCS(=O)(=O)CC2)cc1)c1cccc(-c2csc(C(=O)Nc3ccc(N4CCOCC4)cc3)n2)c1 [Compound 108, 4-{3-[4-(1,1-Dioxo-thiomorpholin-4-ylmethyl)-phenylcarbamoyl]-phenyl}-thiazole-2-carboxylic acid (4-morpholin-4-yl-phenyl)-amide] | 63.1 |
| O=C(Nc1ccc(CN2CCS(=O)(=O)CC2)cc1)c1cccc(-c2csc(NC(=O)c3ccc(N4CCOCC4)cc3)n2)c1 [Compound 109, 3-[2-(4-morpholin-4-yl-benzoylamino)-thiazol-4-yl]-N-[4-(1,1-dioxo-thiomorpholin-4-ylmethyl)-phenyl]-benzamide] | 99.8 |

Reference: US20090317360A1, “ANTI-VIRAL INHIBITORS AND METHODS OF USE” (Genelabs Technologies, Inc., priority 2007, published 2009)
